This note sets out measurements from PubChem BioAssay AID328 (DTP/NCI, 2004).

The assay has as its system BDF1 mice, P388 leukemia ip, median survival T/C. Description: NCI In Vivo Anticancer Drug Screen. Data for tumor model P388 Leukemia (intraperitoneal) in B6D2F1 (BDF1) mice. Conditions: endpoint: median survival time, higher = longer survival. The gist of the method:
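Read-out is survival of treated animals expressed relative to the vehicle group, as a T/C ratio.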

Setting [1] is: dose: 50.0 mg/kg/injection, schedule: Q01DX009 (ip), vehicle: saline with Tween-80.
Setting [2] is: dose: 200.0 mg/kg/injection, schedule: Q01DX009 (ip), vehicle: saline with Tween-80.
Setting [3] is: dose: 400.0 mg/kg/injection, schedule: Q04DX003 (ip), vehicle: saline with Tween-80.
Where [4] appears, read: dose: 25.0 mg/kg/injection, schedule: Q04DX003 (ip), vehicle: saline.
Setting [5] is: dose: 50.0 mg/kg/injection, schedule: Q04DX003 (ip), vehicle: saline.
The mark [6] stands for this setting: dose: 100.0 mg/kg/injection, schedule: Q01DX009 (ip), vehicle: saline with Tween-80.
[7] abbreviates: dose: 25.0 mg/kg/injection, schedule: Q01DX009 (ip), vehicle: saline.
Where [8] appears, read: dose: 50.0 mg/kg/injection, schedule: Q01DX009 (ip), vehicle: saline.
Where [9] appears, read: dose: 100.0 mg/kg/injection, schedule: Q04DX003 (ip), vehicle: saline with Tween-80.
Setting [10] is: dose: 100.0 mg/kg/injection, schedule: Q01DX009 (ip), vehicle: Klucel (hydroxypropylcellulose) (HPC).
[11] abbreviates: dose: 200.0 mg/kg/injection, schedule: Q01DX009 (ip), vehicle: Klucel (hydroxypropylcellulose) (HPC).
Where [12] appears, read: dose: 400.0 mg/kg/injection, schedule: Q01DX009 (ip), vehicle: Klucel (hydroxypropylcellulose) (HPC).
Where [13] appears, read: dose: 12.5 mg/kg/injection, schedule: Q04DX003 (ip), vehicle: saline with Tween-80.
Where [14] appears, read: dose: 25.0 mg/kg/injection, schedule: Q04DX003 (ip), vehicle: saline with Tween-80.
Setting [15] is: dose: 50.0 mg/kg/injection, schedule: Q04DX003 (ip), vehicle: saline with Tween-80.
Setting [16] is: dose: 100.0 mg/kg/injection, schedule: Q04DX003 (ip), vehicle: Klucel (hydroxypropylcellulose) (HPC).
Where [17] appears, read: dose: 200.0 mg/kg/injection, schedule: Q04DX003 (ip), vehicle: Klucel (hydroxypropylcellulose) (HPC).
Setting [18] is: dose: 400.0 mg/kg/injection, schedule: Q04DX003 (ip), vehicle: Klucel (hydroxypropylcellulose) (HPC).

SMILES strings stand for the structures. Where “and” joins values, the source holds several entries; their conditions need not be identical. Equal values may be shown once. Toxic doses and inconclusive results are not listed.

Consider `O=Cc1ccc(C(Cl)(Cl)Cl)cc1`, for which the T/C is, setting by setting: under setting [1], 92 % of control; under setting [2], 122 % of control; under setting [3], 163 % of control.
Turning to `[Cl][Co][Cl].[NH-]CCC[NH-].[NH-]CCC[NH-]`, the T/C under setting [4] is 105 % of control and the T/C under setting [5] is 110 % of control.
Take `COc1cccc2c1C(=O)c1c(O)c3c(c(O)c1C2=O)CC(O)(/C(C)=N/Nc1ccc(Cl)cc1)CC3OC1CC(N)C(O)C(C)O1` (stereo not given): the T/C (dose: 4.08 mg/kg/injection, schedule: Q04DX003 (ip), vehicle: water) is 158 % of control and the T/C (dose: 6.8 mg/kg/injection, schedule: Q04DX003 (ip), vehicle: water) is 157 % of control.
For the compound `CCOC(=O)/C(C#N)=C/c1c(-c2ccccc2)nn2ccccc12`, the T/C is, setting by setting: under setting [1], 96 % of control; under setting [6], 91 % of control.
Regarding `Nc1nc(N)c(N=O)c(Nc2ccc(Br)cc2)n1`, the T/C was 104 % of control under setting [6]; 113 % of control under setting [2]; 95 % of control (dose: 400.0 mg/kg/injection, schedule: Q01DX009 (ip), vehicle: saline with Tween-80).
Consider `CN(C)[C@@H]1C(=O)C(C(N)=O)=C(O)[C@@]2(O)C(=O)C3=C(O)c4c(O)cccc4C[C@H]3C[C@@H]12`, for which the T/C was 100 % of control (dose: 3.75 mg/kg/injection, schedule: Q01DX010 (ip), vehicle: water); 120 % of control (dose: 7.5 mg/kg/injection, schedule: Q01DX010 (ip), vehicle: saline); 118 % of control (dose: 7.5 mg/kg/injection, schedule: Q01DX010 (ip), vehicle: water); 120 % of control (dose: 15.0 mg/kg/injection, schedule: Q01DX010 (ip), vehicle: saline); 109 % of control (dose: 20.0 mg/kg/injection, schedule: Q01DX010 (oral), vehicle: water); 100 % of control (dose: 35.0 mg/kg/injection, schedule: Q01DX010 (oral), vehicle: water). For the same compound, the T/C by setting is: (dose: 50.0 mg/kg/injection, schedule: Q01DX010 (oral), vehicle: water) 100 % of control; (dose: 60.0 mg/kg/injection, schedule: Q01DX010 (ip), vehicle: saline) 100 % of control; (dose: 65.0 mg/kg/injection, schedule: Q01DX010 (oral), vehicle: water) 109 % of control; (dose: 80.0 mg/kg/injection, schedule: Q01DX010 (oral), vehicle: water) 90 % of control.
Take `NCCc1cnc2ccccc2n1`: the T/C is 96 % of control (dose: 18.0 mg/kg/injection, schedule: Q01DX009 (ip), vehicle: saline); 100 % of control under setting [7]; 100 % of control under setting [4]; 92 % of control (dose: 37.0 mg/kg/injection, schedule: Q01DX009 (ip), vehicle: saline); 120 % of control under setting [8]; 100 % of control under setting [5]. Besides, for the setting “dose: 100.0 mg/kg/injection, schedule: Q04DX003 (ip), vehicle: saline”, the T/C was 100 % of control.
Take `Cc1ccc(S(=O)(=O)/N=C/NN(C)C)cc1`: the T/C was 97 % of control under setting [1], 112 % of control under setting [6] and 98 % of control under setting [2].
Take `CCOC(=O)c1ccc(NC(C)=O)c(CSC)c1`: the T/C is 107 % of control (dose: 50.0 mg/kg/injection, schedule: Q04DX002 (ip), vehicle: saline with Tween-80); 98 % of control (dose: 100.0 mg/kg/injection, schedule: Q04DX002 (ip), vehicle: saline with Tween-80); 99 % of control (dose: 200.0 mg/kg/injection, schedule: Q04DX002 (ip), vehicle: saline with Tween-80).
As for `N=C(N)SC(c1ccccc1)c1ccccc1`, the T/C reads like this: (dose: 100.0 mg/kg/injection, schedule: Q01DX001 (ip), vehicle: Klucel (hydroxypropylcellulose) (HPC)) 100 % of control; (dose: 200.0 mg/kg/injection, schedule: Q01DX001 (ip), vehicle: Klucel (hydroxypropylcellulose) (HPC)) 104 % of control.
Take `CC(=N\O)/C(=N\O)C(=O)c1ccccc1`: the T/C is 91 % of control (dose: 100.0 mg/kg/injection, schedule: Q01DX009 (ip), vehicle: other); 95 % of control under setting [9]; 95 % of control (dose: 200.0 mg/kg/injection, schedule: Q04DX003 (ip), vehicle: saline with Tween-80); 90 % of control under setting [3].
As to `CC/C(=C\c1cccc([N+](=O)[O-])c1)C(=O)O`, the T/C is, setting by setting: under setting [10], 100 % of control; under setting [11], 100 % of control; under setting [12], 109 % of control.
As for `CC(C)NC1(C(N)=O)CCN(Cc2ccccc2)CC1`, the T/C was 95 % of control (dose: 50.0 mg/kg/injection, schedule: Q01DX009 (ip), vehicle: Klucel (hydroxypropylcellulose) (HPC)); 91 % of control under setting [10]; 95 % of control under setting [11].
As to `O/N=C/c1ccccc1O.O/N=C/c1ccccc1O.[Cu]`, the T/C reads like this: (dose: 6.25 mg/kg/injection, schedule: Q04DX003 (ip), vehicle: saline with Tween-80) 118 % of control; under setting [13], 109 % of control; (dose: 16.5 mg/kg/injection, schedule: Q04DX003 (ip), vehicle: saline with Tween-80) 114 % of control; under setting [14], 123 % of control.
Take `CC[N+](CC)(CC)CCCCC[N+](CC)(CC)CC`: the T/C is 104 % of control (dose: 6.25 mg/kg/injection, schedule: Q04DX003 (ip), vehicle: water); 114 % of control (dose: 12.5 mg/kg/injection, schedule: Q04DX003 (ip), vehicle: water); 100 % of control and 114 % of control (dose: 25.0 mg/kg/injection, schedule: Q04DX003 (ip), vehicle: water).
Consider `CCCCCOC(CN)C(Cl)(Cl)Cl` (stereo not given), for which the T/C reads like this: under setting [7], 115 % of control; (dose: 33.0 mg/kg/injection, schedule: Q01DX009 (ip), vehicle: saline) 100 % of control and 118 % of control; under setting [8], 113 % of control and 122 % of control; (dose: 75.0 mg/kg/injection, schedule: Q01DX009 (ip), vehicle: saline) 109 % of control.
As to `CC(C)=NNC(=O)c1ccccc1`, the T/C is, setting by setting: under setting [7], 104 % of control; under setting [14], 95 % of control; under setting [8], 109 % of control; under setting [15], 95 % of control; under setting [9], 100 % of control and 113 % of control.
For `CC(/C=C/c1ccccc1)=N\NC(=O)CN(C)C`, the T/C by setting is: under setting [8], 94 % of control; (dose: 100.0 mg/kg/injection, schedule: Q01DX009 (ip), vehicle: saline) 97 % of control.
With `CNc1ccc([N+](=O)[O-])cc1C(=O)OC`, the T/C runs as follows: under setting [6], 104 % of control; under setting [2], 96 % of control.
`CCOc1ccc(/C=N\N=C\c2ccc(OCC)cc2)cc1`: the T/C runs as follows: (dose: 12.5 mg/kg/injection, schedule: Q01DX009 (ip), vehicle: Klucel (hydroxypropylcellulose) (HPC)) 100 % of control; (dose: 25.0 mg/kg/injection, schedule: Q01DX009 (ip), vehicle: Klucel (hydroxypropylcellulose) (HPC)) 96 % of control; under setting [16], 109 % of control; under setting [17], 90 % of control; under setting [18], 90 % of control.
`O=[N+]([O-])/C=C/c1cccc(F)c1`: the T/C is, setting by setting: under setting [13], 107 % of control; under setting [14], 98 % of control; under setting [15], 93 % of control; under setting [9], 87 % of control.
With `CCN(CC)S(=O)(=O)c1ccc(C(=O)O)cc1`, the T/C is, setting by setting: under setting [16], 100 % of control; under setting [17], 104 % of control; under setting [18], 100 % of control.
Regarding `Cc1ccccc1C(Br)C1=CC(C)(C)c2ccccc2C1=O` (stereo not given), the T/C by setting is: under setting [10], 95 % of control; under setting [16], 100 % of control; under setting [11], 100 % of control; under setting [17], 104 % of control; under setting [12], 95 % of control; under setting [18], 100 % of control.
